Here are results for 16 molecules from ChEMBL document CHEMBL2169853, “Discovery and in vivo evaluation of dual PI3Kβ/δ inhibitors” (J Med Chem, 2012).

Series [1] in a line: physchem. The conditions noted are these: phosphate buffered saline, pH 7.4.
Description: Solubility of the compound in phosphate buffered saline at pH 7.4
In series [2] the target is T1, PXR (nuclear receptor subfamily 1 group I member 2) (Homo sapiens, UniProt O75469).
T1 sequence (O75469 whole entry): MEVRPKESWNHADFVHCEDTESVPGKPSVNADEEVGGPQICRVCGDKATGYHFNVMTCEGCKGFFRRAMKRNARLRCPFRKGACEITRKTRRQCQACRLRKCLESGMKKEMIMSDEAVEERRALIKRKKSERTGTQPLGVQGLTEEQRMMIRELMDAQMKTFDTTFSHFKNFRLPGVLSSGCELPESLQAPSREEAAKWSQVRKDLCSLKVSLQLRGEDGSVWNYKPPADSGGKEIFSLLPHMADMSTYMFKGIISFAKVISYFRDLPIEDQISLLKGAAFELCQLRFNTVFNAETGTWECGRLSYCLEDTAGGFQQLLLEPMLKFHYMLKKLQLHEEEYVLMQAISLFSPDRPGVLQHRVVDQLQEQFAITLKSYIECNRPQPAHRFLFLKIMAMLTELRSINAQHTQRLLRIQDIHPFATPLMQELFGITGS
In words: in vitro.
Description: Inhibition of human PXR assessed as activity remaining at 2 uM relative to rifampicin

Series [3] deals with T2, Phosphatidylinositol 4,5-bisphosphate 3-kinase catalytic subunit beta isoform (Homo sapiens, UniProt P42338).
T2 sequence (P42338 whole entry, canonical isoform): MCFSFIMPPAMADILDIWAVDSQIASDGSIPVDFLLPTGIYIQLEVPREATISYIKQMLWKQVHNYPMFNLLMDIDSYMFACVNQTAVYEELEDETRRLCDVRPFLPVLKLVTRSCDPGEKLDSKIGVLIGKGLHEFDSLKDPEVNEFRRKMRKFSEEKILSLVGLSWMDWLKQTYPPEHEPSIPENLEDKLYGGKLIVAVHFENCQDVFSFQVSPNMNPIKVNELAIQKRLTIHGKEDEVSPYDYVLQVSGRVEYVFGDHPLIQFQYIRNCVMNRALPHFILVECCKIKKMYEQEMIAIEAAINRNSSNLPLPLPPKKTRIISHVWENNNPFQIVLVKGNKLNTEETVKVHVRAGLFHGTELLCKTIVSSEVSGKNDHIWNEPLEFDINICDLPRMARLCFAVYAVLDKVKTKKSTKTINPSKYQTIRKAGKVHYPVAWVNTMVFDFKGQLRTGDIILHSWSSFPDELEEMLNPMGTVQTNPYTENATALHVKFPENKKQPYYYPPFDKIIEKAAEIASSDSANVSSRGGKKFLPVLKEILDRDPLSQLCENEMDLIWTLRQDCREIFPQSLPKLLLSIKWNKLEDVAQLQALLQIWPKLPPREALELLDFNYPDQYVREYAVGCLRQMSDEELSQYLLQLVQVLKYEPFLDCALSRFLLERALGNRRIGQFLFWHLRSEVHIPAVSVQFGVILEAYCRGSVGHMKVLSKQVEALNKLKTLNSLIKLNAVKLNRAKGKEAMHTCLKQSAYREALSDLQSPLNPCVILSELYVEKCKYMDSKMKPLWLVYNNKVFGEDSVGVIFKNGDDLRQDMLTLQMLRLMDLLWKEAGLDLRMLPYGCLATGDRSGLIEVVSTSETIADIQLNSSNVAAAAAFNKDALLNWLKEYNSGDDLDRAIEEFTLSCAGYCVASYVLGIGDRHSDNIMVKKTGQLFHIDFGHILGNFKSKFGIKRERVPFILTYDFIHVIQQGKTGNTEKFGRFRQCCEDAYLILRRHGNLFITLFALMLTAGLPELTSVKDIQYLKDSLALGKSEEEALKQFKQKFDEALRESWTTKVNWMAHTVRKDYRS
Description: Inhibition of PI3Kbeta-mediated AKT Ser473 phosphorylation in human MDA-MB-468 cells after 120 mins by meso scale discover assay
Series [4] can be described thus: in vitro. The conditions noted are these: rat, liver microsomes. (In general: Liver microsomes are a subcellular fraction often used to study metabolism.)
Description: Drug metabolism in rat liver microsomes at 1 uM after 30 mins
Series [5] in a line: in vitro. The conditions noted are these: human, liver microsomes.
Description: Drug metabolism in human liver microsomes at 1 uM after 30 mins
In series [6] the target is Phosphatidylinositol 4,5-bisphosphate 3-kinase catalytic subunit gamma isoform (Homo sapiens, UniProt P48736).
Chain of Phosphatidylinositol 4,5-bisphosphate 3-kinase catalytic subunit gamma isoform (P48736 whole entry, canonical isoform): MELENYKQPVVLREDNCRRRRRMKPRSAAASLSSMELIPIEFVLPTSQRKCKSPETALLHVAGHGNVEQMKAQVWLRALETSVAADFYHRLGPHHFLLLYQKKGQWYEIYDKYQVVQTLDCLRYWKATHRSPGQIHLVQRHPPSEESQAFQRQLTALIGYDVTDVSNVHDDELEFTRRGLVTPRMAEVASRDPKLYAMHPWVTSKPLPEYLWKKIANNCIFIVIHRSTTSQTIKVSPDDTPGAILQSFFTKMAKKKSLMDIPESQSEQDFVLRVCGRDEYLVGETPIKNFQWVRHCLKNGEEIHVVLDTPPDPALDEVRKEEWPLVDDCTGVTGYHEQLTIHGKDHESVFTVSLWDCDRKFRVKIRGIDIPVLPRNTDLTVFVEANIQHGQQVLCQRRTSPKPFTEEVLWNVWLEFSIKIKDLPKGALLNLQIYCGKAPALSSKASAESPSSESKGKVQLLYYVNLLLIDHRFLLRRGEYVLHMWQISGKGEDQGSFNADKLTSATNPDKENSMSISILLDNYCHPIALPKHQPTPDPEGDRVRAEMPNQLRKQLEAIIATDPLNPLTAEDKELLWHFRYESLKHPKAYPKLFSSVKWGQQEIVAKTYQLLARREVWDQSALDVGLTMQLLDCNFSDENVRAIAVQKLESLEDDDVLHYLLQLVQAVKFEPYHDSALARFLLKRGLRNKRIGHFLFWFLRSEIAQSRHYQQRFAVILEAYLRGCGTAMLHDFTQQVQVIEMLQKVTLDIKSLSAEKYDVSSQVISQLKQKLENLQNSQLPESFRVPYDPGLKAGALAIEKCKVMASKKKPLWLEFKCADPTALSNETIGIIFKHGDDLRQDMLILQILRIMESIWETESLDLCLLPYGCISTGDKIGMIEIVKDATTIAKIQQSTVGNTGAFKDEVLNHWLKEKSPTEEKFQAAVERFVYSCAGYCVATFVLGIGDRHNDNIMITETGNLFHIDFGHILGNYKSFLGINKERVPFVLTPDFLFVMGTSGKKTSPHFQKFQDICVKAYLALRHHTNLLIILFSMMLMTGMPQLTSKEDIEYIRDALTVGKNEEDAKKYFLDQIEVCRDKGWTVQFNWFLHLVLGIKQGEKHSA
Description: Inhibition of PI3Kgamma by ATP bioluminescence assay
Series [7] has as its target T2, Phosphatidylinositol 4,5-bisphosphate 3-kinase catalytic subunit beta isoform. This is another data set of the same source.
Description: Inhibition of PI3Kbeta using phosphatidylinositol-4,5-bisphosphate by ATP bioluminescence assay
The target of series [8] is Phosphatidylinositol 4,5-bisphosphate 3-kinase catalytic subunit alpha isoform (Homo sapiens, UniProt P42336).
Chain of Phosphatidylinositol 4,5-bisphosphate 3-kinase catalytic subunit alpha isoform (P42336 whole entry, canonical isoform): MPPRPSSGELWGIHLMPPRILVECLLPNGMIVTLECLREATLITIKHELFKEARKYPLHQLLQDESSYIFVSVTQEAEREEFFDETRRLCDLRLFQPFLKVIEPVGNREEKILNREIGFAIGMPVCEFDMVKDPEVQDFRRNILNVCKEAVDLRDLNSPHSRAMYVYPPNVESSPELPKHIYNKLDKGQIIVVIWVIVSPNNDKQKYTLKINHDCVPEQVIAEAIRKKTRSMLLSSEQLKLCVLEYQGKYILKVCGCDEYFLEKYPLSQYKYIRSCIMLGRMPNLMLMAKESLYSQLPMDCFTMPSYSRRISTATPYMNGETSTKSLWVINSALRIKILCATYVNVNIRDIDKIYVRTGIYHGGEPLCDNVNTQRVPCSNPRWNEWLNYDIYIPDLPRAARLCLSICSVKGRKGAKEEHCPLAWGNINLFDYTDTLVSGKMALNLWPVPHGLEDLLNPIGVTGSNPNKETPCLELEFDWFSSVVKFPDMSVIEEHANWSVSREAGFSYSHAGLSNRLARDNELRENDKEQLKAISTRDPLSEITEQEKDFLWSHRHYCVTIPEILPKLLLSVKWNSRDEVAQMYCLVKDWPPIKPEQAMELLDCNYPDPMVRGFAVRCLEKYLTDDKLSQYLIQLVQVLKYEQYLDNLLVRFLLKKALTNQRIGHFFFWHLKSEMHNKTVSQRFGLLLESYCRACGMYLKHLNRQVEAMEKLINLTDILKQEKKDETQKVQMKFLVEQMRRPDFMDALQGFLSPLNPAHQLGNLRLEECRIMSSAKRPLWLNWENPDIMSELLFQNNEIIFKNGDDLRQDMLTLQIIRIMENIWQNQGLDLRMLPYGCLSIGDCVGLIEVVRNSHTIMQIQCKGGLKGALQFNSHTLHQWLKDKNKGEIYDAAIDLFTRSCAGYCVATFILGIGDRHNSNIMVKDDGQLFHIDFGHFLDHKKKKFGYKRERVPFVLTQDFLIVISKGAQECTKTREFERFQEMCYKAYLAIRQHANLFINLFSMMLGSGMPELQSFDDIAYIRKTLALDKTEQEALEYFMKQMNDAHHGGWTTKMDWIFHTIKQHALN
Description: Inhibition of PI3Kalpha by ATP bioluminescence assay
Series [9] can be described thus: in vivo. The note with it: Sprague-Dawley, rat, iv, 0.5 mg/kg.
Description: Volume of distribution at steady state in Sprague-Dawley rat at 0.5 mg/kg, iv
Series [10] in a line: in vivo. The conditions noted are these: Sprague-Dawley, rat, iv, 0.5 mg/kg. The source holds these as a separate data set.
Description: Clearance in Sprague-Dawley rat at 0.5 mg/kg, iv
The nature of series [11]: in vivo. The conditions noted are these: Sprague-Dawley, rat, iv, 0.5 mg/kg. The source holds these as a separate data set.
Description: Half life in Sprague-Dawley rat at 0.5 mg/kg, iv
The target of series [12] is T3, Phosphatidylinositol 4,5-bisphosphate 3-kinase catalytic subunit delta isoform (Homo sapiens, UniProt O00329).
T3 sequence (O00329 whole entry): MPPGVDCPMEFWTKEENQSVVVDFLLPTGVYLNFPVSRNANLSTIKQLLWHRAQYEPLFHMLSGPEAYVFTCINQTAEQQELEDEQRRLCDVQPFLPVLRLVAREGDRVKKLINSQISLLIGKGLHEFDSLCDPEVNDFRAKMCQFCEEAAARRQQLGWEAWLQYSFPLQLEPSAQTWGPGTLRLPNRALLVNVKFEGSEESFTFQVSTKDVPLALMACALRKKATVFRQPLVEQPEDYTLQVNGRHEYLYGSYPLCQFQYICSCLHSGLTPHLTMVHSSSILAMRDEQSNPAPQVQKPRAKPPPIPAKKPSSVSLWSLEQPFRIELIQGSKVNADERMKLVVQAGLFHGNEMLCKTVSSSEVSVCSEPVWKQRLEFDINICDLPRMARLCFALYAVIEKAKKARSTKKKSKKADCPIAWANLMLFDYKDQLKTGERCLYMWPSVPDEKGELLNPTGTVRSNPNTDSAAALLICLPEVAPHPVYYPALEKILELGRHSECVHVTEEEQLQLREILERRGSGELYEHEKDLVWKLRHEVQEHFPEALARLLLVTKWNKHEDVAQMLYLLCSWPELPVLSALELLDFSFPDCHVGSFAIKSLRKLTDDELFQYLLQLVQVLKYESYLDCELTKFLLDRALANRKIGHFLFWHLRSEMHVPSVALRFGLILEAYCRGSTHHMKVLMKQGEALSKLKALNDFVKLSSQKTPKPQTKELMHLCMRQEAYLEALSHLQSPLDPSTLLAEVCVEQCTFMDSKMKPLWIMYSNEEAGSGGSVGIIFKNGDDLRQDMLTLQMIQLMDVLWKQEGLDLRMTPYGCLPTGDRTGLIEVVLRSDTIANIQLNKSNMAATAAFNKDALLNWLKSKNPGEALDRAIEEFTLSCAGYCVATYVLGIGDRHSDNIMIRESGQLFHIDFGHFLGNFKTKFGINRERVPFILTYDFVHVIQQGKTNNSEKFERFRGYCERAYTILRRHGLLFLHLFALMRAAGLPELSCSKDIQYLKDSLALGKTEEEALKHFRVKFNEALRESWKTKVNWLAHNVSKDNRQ
Description: Inhibition of PI3Kdelta using phosphatidylinositol-4,5-bisphosphate by ATP bioluminescence assay

A short description of series [13]: in vivo. The conditions noted are these: Sprague-Dawley, rat, plasma, po, 2 mg/kg.
Series [14] in a line: in vivo. The conditions noted are these: Sprague-Dawley, rat, po, 2 mg/kg.
Series [15] is described as follows: physchem. The conditions noted are these: buffer, pH 7.4.
Description: Lipophilicity, log D of the compound at pH 7.4

SMILES strings stand for the structures. ≈ marks a conversion by molar mass, not a printed value.

What is called solubility is how much of the substance goes into solution per volume. As a reminder, the IC50 is the concentration at which inhibition is half-maximal. The low end stands for inhibition by little substance, the high end for a need for much substance. As a reminder, the Ki is the dissociation constant of the complex between target and ligand, obtained from inhibition or displacement. For the molecule `Cc1c(-c2ccccn2)nc2cc(F)ccc2c1N1CC(C)(C)c2ncc(-c3ccnc(N)n3)cc21`, in the series “physchem [1]”, the solubility is 17 µg/mL (≈ 35.6 µM). Also, the activity at 2 µM in [2] came to 65%. The same molecule showed an IC50 in series [3] of 10 nM. Besides, the metabolised at 0.5 h, 1 µM was found to be 34% in “in vitro [4]” and 12% in “in vitro [5]”. Further, the inhibitory constant (Ki) turned out to be 28 nM in series [6] and 18 nM in series [7].
As for `Cc1c(-c2ccccn2)nc2cc(F)ccc2c1N1CC2(CS(=O)(=O)C2)c2ccc(N3CCOCC3)cc21`, the Ki in series [8] was over 12.5 µM; in series [6], 7340 nM; in series [7] it was 395 nM.
The Vd is a proportionality between amount in the body and measured concentration, not a real space. A word on the clearance: it is the volume of plasma or blood freed of the substance per unit of time. Higher therefore signals efficient removal. The term half-life denotes the time needed for the level to fall by half in the phase considered. Low readings indicate fast loss, high ones slow loss. What is called AUC is concentration integrated over time. A word on the bioavailability: it is dose-corrected exposure relative to a reference, in per cent. A higher bioavailability goes with good availability. `Cc1c(-c2ccccn2)nc2cc(F)ccc2c1N1CC(C)(C)c2ncc(N3CCOCC3)cc21` registered a Vd in “in vivo [9]” of 5 L/kg. Also, the solubility in the series “physchem [1]” is 11 µg/mL (≈ 23.4 µM). Also, the activity at 2 µM in [2] was 22%. The molecule further showed a clearance in the series “in vivo [10]” of 16.2 mL/min/kg. The molecule also yielded an IC50 in series [3] of 51 nM. Besides, the half-life in the series “in vivo [11]” was 372 min. Besides, the metabolised at 0.5 h, 1 µM is 28% in the series “in vitro [4]” and 47% in “in vitro [5]”. The inhibition constant Ki is 1.72 µM in [8], 92 nM in series [6], 7 nM in [12] and 30 nM in series [7]. This molecule gave an exposure (AUC) in “in vivo [13]” of 2 µM·h. Also, the bioavailability in the series “in vivo [14]” is 47%.
As to `Cc1c(-c2ccccn2)nc2cc(F)ccc2c1N1CC(C)(C)c2ccc(-c3ccnc(N)n3)cc21`, the volume of distribution (Vd) in the series “in vivo [9]” stood at 7.5 L/kg. Moreover, the clearance in “in vivo [10]” is 26.8 mL/min/kg. In addition, in “in vivo [11]”, the half-life is 366 min. Besides, the inhibition constant Ki in [6] was found to be 90 nM; in series [7], 54 nM.
Consider `Cc1nc2ccccc2c(N2CC(C)(C)c3ccc(N4CCOCC4)cc32)c1C`, for which the solubility in “physchem [1]” amounted to 1 µg/mL (≈ 2.58 µM). In series [2], the activity at 2 µM is 14%. For the same molecule, the metabolised at 0.5 h, 1 µM was 94% in “in vitro [4]” and 65% in “in vitro [5]”. The half-maximal inhibitory concentration (IC50) stood at 41 µM in [8], 18000 nM in [6], 362 nM in series [12] and 60 nM in series [7].
With `Cc1cc(-c2ccc3c(c2)N(c2c(C)c(-c4ccccn4)nc4cc(F)ccc24)CC3(C)C)nc(N)n1`, the inhibition constant (Ki) was over 125 µM in series [8], 364 nM in series [6] and over 125000 nM in series [7].
Turning to `Cc1nc2ccccc2c(N2CC3(CCOCC3)c3ccc(N4CCOCC4)cc32)c1C`, in series [2], the activity at 2 µM is 1%. For the same molecule, the metabolised at 0.5 h, 1 µM in the series “in vitro [4]” was 71%; in the series “in vitro [5]”, 70%. The IC50 in series [12] amounted to 450 nM; in series [7], 54 nM.
For `Cc1c(-c2ccccn2)nc2cc(F)ccc2c1N1CC(CO)(CO)c2ccc(N3CCOCC3)cc21`, the figures for the Ki in [8], in [6] and in series [7] were over 125 µM, 16000 nM and 269 nM, respectively.
On to `Cc1c(-c2ccccn2)nc2cc(F)ccc2c1N1CC2(CCOCC2)c2ccc(N3CCOCC3)cc21`, for which, in series [2], the activity at 2 µM is 22%. Moreover, the metabolised at 0.5 h, 1 µM is 13% in the series “in vitro [4]” and 64% in the series “in vitro [5]”. Further, the results for the concentration for half-maximal inhibition (IC50) in series [12] and in series [7] were 64 nM and 143 nM, respectively.
Turning to `Cc1c(-c2ccccn2)nc2cc(F)ccc2c1N1CC(C)(C)c2ccc(-c3ccncc3)cc21`, the IC50 in series [6] is 1400 nM; in series [7], 81 nM.
The molecule `Cc1c(-c2ccccn2)nc2cccc(F)c2c1N1CC(C)(C)c2ccc(N3CCOCC3)cc21` displayed a solubility in the series “physchem [1]” of 5.2 µg/mL (≈ 11.1 µM). Further, in series [2], the activity at 2 µM turned out to be 104%. Besides, the metabolised at 0.5 h, 1 µM in “in vitro [4]” was found to be 49%; in “in vitro [5]” it was 52%. Further, the IC50 in series [12] stood at 72 nM; in series [7], 720 nM.
`Cc1c(-c2ccccc2F)nc2ccccc2c1N1CC(C)(C)c2ccc(N3CCOCC3)cc21`: the solubility in the series “physchem [1]” was 1 µg/mL (≈ 2.14 µM). Further, the activity at 2 µM in series [2] amounted to 162%. Also, the metabolised at 0.5 h, 1 µM worked out at 52% in “in vitro [4]” and 47% in “in vitro [5]”. The IC50 amounted to 47 nM in [12] and 35 nM in [7].
As to `Cc1nc2ccc(Cl)cc2c(N2CC(C)(C)c3ccc(N4CCOCC4)cc32)c1C`, the solubility in “physchem [1]” came out at 1 µg/mL (≈ 2.37 µM). In addition, the activity at 2 µM in [2] turned out to be 17%. For the same molecule, the metabolised at 0.5 h, 1 µM in “in vitro [4]” amounted to 84%; in “in vitro [5]”, 54%. The molecule also registered an IC50 in [7] of 60 nM.
Turning to `Cc1c(-c2ccccc2)nc2ccccc2c1N1CC(C)(C)c2ccc(N3CCOCC3)cc21`, in “physchem [1]”, the solubility amounted to 2.4 µg/mL (≈ 5.34 µM). Besides, the activity at 2 µM in series [2] came to 197%. Moreover, the metabolised at 0.5 h, 1 µM is 57% in the series “in vitro [4]” and 42% in the series “in vitro [5]”. The 50% inhibitory concentration (IC50) in series [12] turned out to be 85 nM; in series [7] it was 59 nM.
By logD is commonly meant lipophilicity at a set pH, counting ionised and neutral species. Low readings indicate lower lipophilicity, high ones higher lipophilicity. In turn, `Cc1c(-c2ccccn2)nc2cc(F)ccc2c1N1CC(C)(C)c2ccc(N3CCOCC3)cc21` displayed a pH-dependent lipophilicity (logD) in the series “physchem [15]” of 4.5. The solubility in “physchem [1]” amounted to 7.4 µg/mL (≈ 15.8 µM). Further, in series [2], the activity at 2 µM is 106%. For the same molecule, the half-maximal inhibitory concentration (IC50) was 53 nM in [3], 2010 nM in [6] and 58 nM in series [7]. In addition, the metabolised at 0.5 h, 1 µM in “in vitro [4]” is 34%; in the series “in vitro [5]”, 40%.
Consider `Cc1c(-c2ccccc2)nc2ccccc2c1N1CC2(CCOCC2)c2ccc(N3CCOCC3)cc21`, for which the solubility in the series “physchem [1]” worked out at 3.2 µg/mL (≈ 6.51 µM). The activity at 2 µM in [2] is 103%. In addition, the metabolised at 0.5 h, 1 µM in the series “in vitro [4]” came to 46%; in “in vitro [5]”, 62%. In addition, the IC50 in series [12] stood at 91 nM; in [7], 105 nM.
